This note sets out measurements from PMC12816581 (Nature Communications, 2025).

One series addresses PRMT5 (Homo sapiens, UniProt O14744). As to the kind of experiment: E-ASMS affinity selection. In kind it is binding.
A further series deals with T1, USP21 (Homo sapiens, UniProt Q9UK80).
T1 sequence (Q9UK80 1-565): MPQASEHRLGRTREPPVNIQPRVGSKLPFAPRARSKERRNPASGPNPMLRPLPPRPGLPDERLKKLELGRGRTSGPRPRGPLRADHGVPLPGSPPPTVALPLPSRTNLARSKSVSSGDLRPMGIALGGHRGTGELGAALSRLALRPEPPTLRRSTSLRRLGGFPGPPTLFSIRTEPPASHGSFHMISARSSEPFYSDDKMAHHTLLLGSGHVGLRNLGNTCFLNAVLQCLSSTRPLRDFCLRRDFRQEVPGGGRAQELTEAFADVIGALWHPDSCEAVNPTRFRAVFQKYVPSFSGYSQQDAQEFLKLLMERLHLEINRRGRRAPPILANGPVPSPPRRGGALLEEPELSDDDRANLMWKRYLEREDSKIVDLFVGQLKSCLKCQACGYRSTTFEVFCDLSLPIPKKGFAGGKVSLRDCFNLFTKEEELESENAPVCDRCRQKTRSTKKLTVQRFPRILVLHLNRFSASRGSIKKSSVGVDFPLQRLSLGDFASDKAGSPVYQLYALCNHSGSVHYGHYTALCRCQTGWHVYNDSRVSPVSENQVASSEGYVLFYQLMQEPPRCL
In words: E-ASMS affinity selection. The conditions noted are these: USP21 beads, negative control protein. It counts as binding.

The target of a further series is DCAF1 (Homo sapiens, UniProt Q9Y4B6). As to the kind of experiment: E-ASMS affinity selection. It counts as binding. Conditions: DCAF1 beads, negative control protein.
Chain of DCAF1 (Q9Y4B6 whole entry): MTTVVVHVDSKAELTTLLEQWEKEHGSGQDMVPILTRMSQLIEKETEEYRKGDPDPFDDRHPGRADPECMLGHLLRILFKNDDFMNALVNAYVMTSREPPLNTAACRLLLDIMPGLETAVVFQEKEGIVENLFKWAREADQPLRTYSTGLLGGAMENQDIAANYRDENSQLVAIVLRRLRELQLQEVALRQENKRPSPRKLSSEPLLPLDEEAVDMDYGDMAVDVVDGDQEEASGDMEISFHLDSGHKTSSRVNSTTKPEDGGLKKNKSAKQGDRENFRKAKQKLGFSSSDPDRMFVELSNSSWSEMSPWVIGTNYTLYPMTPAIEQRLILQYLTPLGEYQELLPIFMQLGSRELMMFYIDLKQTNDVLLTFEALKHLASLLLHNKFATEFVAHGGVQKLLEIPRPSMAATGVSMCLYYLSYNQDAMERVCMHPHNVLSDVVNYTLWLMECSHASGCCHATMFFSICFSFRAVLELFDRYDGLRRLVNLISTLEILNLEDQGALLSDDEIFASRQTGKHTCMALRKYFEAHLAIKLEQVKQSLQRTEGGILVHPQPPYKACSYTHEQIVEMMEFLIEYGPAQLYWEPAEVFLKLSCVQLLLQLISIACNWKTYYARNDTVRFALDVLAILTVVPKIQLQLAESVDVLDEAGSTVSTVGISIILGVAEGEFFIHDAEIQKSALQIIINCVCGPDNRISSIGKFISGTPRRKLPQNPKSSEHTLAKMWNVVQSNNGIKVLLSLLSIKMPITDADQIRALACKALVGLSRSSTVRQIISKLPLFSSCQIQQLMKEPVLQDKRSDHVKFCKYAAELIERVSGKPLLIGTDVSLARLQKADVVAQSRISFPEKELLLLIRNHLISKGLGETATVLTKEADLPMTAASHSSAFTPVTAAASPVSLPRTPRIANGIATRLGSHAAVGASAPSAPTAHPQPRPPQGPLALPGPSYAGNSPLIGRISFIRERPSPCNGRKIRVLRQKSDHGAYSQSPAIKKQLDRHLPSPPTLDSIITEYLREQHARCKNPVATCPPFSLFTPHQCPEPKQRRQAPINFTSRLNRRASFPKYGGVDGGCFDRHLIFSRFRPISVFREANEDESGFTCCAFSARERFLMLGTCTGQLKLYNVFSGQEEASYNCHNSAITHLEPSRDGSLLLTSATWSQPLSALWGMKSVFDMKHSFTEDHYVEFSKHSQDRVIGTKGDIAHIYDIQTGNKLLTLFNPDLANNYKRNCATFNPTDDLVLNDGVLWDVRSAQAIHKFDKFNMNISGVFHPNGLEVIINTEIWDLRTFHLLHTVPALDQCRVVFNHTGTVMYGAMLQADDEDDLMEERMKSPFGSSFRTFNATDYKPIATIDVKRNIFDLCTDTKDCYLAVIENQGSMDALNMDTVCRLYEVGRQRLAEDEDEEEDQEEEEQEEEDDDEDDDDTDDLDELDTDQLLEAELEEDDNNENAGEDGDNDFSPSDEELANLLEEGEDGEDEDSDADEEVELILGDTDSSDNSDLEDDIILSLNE
A short description of series [1]: Chiral stability assessment via hydrogen-deuterium. In kind it is physicochemical. Conditions: binding buffer with D2O, 4 °C, 8 h; indicates potential spontaneous racemization.
The next series concerns the target T2, WDR91 (Homo sapiens, UniProt A4D1P6).
T2 sequence (A4D1P6 1-747): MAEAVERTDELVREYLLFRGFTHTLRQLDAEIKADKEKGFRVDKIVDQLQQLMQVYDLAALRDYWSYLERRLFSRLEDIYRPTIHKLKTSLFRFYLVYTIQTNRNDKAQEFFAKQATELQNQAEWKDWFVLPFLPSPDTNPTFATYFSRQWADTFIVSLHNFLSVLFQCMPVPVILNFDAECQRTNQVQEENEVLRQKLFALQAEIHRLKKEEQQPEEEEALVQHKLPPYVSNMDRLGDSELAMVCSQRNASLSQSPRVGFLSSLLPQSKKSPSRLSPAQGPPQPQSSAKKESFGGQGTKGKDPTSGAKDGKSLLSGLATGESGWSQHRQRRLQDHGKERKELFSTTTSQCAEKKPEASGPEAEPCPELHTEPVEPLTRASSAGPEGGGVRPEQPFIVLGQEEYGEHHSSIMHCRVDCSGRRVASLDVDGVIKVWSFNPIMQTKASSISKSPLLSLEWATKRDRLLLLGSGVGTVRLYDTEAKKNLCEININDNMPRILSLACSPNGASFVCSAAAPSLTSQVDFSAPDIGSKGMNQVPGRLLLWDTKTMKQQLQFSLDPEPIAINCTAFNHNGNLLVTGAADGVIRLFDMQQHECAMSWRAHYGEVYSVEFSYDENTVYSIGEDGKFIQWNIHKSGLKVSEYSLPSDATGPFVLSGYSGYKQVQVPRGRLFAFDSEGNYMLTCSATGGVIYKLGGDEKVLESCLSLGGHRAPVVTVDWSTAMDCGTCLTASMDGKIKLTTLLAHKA
In kind it is binding.

Series [2] addresses T3, WDR55 (Homo sapiens, UniProt Q9H6Y2).
T3 sequence (Q9H6Y2 1-383): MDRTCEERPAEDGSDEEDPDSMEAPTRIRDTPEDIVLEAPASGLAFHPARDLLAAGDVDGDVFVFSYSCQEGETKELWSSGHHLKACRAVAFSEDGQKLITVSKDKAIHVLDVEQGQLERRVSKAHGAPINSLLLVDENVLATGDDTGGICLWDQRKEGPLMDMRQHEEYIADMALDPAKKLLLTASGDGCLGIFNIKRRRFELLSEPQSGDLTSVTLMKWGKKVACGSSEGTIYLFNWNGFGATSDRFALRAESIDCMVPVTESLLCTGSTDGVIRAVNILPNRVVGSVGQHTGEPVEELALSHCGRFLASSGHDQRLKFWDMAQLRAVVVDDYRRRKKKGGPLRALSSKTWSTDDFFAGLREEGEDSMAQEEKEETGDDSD
In words: biochemical. It counts as binding.

Series [3] deals with T3, WDR55. In kind it is binding.
A further series addresses DDB1 (Homo sapiens, UniProt Q16531). In words: E-ASMS affinity selection. In kind it is binding.

Chain of PRMT5 (O14744 whole entry): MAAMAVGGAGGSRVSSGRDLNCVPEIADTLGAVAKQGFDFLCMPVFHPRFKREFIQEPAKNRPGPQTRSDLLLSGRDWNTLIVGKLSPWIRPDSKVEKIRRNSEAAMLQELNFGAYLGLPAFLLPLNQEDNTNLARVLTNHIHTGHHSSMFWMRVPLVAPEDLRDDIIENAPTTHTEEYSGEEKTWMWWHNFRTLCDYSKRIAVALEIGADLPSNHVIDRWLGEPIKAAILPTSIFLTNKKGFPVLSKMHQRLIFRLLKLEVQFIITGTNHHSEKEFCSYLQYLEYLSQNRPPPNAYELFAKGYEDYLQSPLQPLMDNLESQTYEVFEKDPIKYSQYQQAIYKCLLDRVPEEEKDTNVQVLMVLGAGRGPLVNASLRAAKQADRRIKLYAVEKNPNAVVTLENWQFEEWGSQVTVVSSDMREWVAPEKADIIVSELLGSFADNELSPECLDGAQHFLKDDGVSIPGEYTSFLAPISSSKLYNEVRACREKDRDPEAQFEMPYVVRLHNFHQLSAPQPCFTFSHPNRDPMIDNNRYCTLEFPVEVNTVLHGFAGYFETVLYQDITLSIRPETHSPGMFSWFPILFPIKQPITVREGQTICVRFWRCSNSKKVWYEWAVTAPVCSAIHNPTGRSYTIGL
Chain of PRMT5 (Q9BQA1 whole entry partner): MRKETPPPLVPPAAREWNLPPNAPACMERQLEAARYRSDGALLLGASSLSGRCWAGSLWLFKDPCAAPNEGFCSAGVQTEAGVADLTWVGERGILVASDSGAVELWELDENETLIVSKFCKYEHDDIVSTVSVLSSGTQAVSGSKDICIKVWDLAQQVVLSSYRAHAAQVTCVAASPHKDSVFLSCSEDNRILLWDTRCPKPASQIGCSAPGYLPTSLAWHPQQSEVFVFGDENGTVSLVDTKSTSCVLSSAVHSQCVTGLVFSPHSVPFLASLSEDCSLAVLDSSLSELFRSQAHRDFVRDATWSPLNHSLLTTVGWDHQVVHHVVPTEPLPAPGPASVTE
Chain of DDB1 (Q16531 whole entry): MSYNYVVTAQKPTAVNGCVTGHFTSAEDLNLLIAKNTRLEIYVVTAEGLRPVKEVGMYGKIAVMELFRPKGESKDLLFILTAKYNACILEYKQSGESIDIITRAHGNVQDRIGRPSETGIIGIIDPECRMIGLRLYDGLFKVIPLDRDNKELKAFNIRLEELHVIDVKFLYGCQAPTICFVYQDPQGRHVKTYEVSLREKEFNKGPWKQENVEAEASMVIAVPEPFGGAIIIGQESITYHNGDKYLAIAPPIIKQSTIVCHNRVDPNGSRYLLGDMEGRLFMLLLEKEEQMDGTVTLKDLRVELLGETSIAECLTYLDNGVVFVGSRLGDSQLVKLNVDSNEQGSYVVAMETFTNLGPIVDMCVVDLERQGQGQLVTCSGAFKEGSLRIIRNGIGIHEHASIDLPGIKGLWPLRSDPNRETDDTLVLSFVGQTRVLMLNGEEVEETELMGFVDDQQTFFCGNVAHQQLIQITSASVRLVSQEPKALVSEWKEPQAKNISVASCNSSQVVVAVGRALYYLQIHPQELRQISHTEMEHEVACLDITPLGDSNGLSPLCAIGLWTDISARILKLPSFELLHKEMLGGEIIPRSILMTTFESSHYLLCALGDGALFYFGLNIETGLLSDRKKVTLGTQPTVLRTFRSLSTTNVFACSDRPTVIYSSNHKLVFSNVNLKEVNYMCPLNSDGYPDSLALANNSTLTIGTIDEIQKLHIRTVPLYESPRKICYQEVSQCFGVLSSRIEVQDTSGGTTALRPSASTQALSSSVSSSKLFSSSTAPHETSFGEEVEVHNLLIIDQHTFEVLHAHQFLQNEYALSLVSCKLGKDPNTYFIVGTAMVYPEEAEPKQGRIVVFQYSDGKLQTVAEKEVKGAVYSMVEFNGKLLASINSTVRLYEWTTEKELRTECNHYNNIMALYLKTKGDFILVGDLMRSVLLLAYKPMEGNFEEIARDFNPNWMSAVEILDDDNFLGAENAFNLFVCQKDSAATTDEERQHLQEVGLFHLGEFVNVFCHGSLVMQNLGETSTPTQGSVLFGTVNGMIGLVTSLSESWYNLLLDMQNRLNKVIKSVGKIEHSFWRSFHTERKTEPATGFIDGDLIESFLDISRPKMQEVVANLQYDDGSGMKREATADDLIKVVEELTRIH

Take `Nc1ncnc2c1ccn2[C@@H]1O[C@H]([C@H](O)c2ccccc2)[C@@H](O)[C@H]1O` [(S)-LLY283]: at PRMT5 (PRMT5 eluate), the “Enantioselective enrichment (chiral chromatography of eluate)” value is “Enantioselective enrichment”.

Regarding `Nc1cccc2c1CN(C1CCC(=O)NC1=O)C2=O` (stereo not drawn) [Lenalidomide, lenalidomide], the “Enrichment in methanol eluate (E-ASMS)” value on PRMT5 (PRMT5 beads, negative control protein) is given as “no significant enrichment”; at USP21, “no significant enrichment”; at DCAF1 it was “no significant enrichment”.

For `CN1C(=O)C(c2c(-c3ccc(Cl)cc3)[nH]c3c2c(=O)[nH]c(=O)n3C)c2ccccc21` (stereo not drawn) [XS381295], the “Deuterium incorporation (H/D exchange)” value in series [1] was “showed deuterium incorporation”. In addition, the “Enantioselective binding (chiral chromatography of eluate)” value at WDR91 (WDR91-bead eluate) is “did not show enantioselectivity”. Besides, on WDR91 (WDR91 beads vs other proteins screened in parallel), the “Enrichment in methanol eluate (E-ASMS)” value is “enriched”.

Molecule `CC1Cc2cc(-c3ccnc4ncnn34)ccc2O1` (stereo not drawn) [XS381774] gave a Kd at WDR55 [2] of 11 µM. On WDR55 [3] (WDR55-bead eluate), the “Enantioselective binding (chiral chromatography of eluate)” value is on record as “displayed enantioselectivity”. The “Enrichment in methanol eluate (E-ASMS)” value on WDR55 [3] (WDR55 beads) is reported as “enriched”.

Turning to `CCOc1cccc(C2CC(=O)Nc3c2c(C)nn3-c2ccc3nncn3n2)c1` (stereo not drawn) [XS381952], the “Enantioselective enrichment (chiral chromatography of eluate)” value on DDB1 (DDB1-bead eluate vs ratio of enantiomers in starting library) is given as “one of the two enantiomers was clearly enriched”. Further, the “Enrichment in methanol eluate (E-ASMS)” value on DDB1 (DDB1 beads vs other proteins screened in parallel) is listed as “specifically enriched”.
